From PMC10964233, “Antigen-Mimic Nanoparticles in Ultrasensitive on-Chip Integrated Anti-p53 Antibody Quantification” (ACS Sensors, 2024)

Tests used:
[1] = test system: Con A-modified electrode interfaces; experiment: Antibody selectivity of Con A-modified electrode interfaces; assay type: binding; settings: 1.0 mg/mL nonspecific protein; Figure S7
[2] = test system: DO-1 peptide/HRP-IONPs with Con A-modified SPCEs; experiment: Assay specificity (SWV responses of interferents); settings: equivalent MAC immunoisolation conditions, Figure S17
Procedure: Following a 10 min incubation of the antibody–IONP immunocomplexes on Con A-modified SPCEs, and subsequent washing with PBS, 100 μL of the high-sensitivity TMB substrate was added and left to react for 5 min. Square-wave voltammetry (SWV) scans were then conducted from +1.0 to −0.5 V (vs Ag/AgCl), at an amplitude of 20 mV, a potential step of 2 mV, and a frequency of 50 Hz. […] Recovery assays were conducted using DO-1 antibodies spiked into 1.0 mg/mL BSA or 1.0% human serum (human male AB plasma, Sigma, UK).
To evaluate the performance in spiked samples, recovery tests were performed in 1.0 mg/mL BSA and diluted human serum.

Concanavalin A = experiment: SPR + other: electrochemical impedance spectroscopy; SPR at Con A-saturated gold chips with a BSA-saturated surface as reference (298 K, 30 uL/min, 10 mM PBS pH 7.4); EIS at Con A-modified SPCEs in 5 mM [Fe(CN)6]3-/4- PBS pH 7.4; both responses fitted to Langmuir-Freundlich isotherms, Kd from the plot mean

bovine serum albumin [BSA]
Response at Con A interface relative to DO-1 antibody [1]: < 10%
Voltammetric response relative to 50 ng/mL DO-1 antibody ([2]; 1.0 mg/mL): < 10%

immunoglobulin G
Voltammetric response relative to 50 ng/mL DO-1 antibody ([2]; 10.0 μg/mL (antibody control)): < 10%

monoclonal DO-1 antibody
Kd (Concanavalin A): 0.0136 µM
